This passage reports EC50, IC50 and outcome results from PubChem BioAssay AID179 (DTP/NCI, 2004).

The test system of the assay is CEM cells HIV-1 protection, formazan growth assay. In words: NCI AIDS Antiviral Assay. Conditions: for IC50: measured here: growth of uninfected CEM cells. In short, it runs like this: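 Steps: treat uninfected and HIV-1-infected human CEM cells at five drug levels; quantify growth by soluble formazan; retest any compound reaching 50% protection; classify actives from the retest.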

Several values for one entry are separate records, joined by “and”; a condition that tells them apart may be missing. Equal entries are not always repeated. Activity calls are given as the source filed them.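 The calls were made as follows: active = compounds giving half or more protection of infected cells from virus-caused growth loss, again on retest; inactive = the rest.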 Bounds are passed on as bounds.

As to `CCCC/C=C(\CCCNCCCC)[Si](C)(C)C`, the EC50 (in general, the concentration needed to bring the measured effect to its halfway point) was over 479 µM and the IC50 – broadly, the concentration needed to halve the response being measured – came to 178 µM.

`CCOC(=O)/C(C#N)=C/c1ccccc1[N+](=O)[O-]`: the EC50 is over 275 µM and the IC50 amounted to 46.8 µM.

On to `O=C(N/N=C/c1cc(Cl)cc(Cl)c1[OH2+])c1ccncc1.O=S(=O)([O-])[O-].[Fe+2]`, for which the outcome was inactive.

Turning to `CS(=O)(=O)Nc1ccc2oc(=O)c3ccccc3c2c1`, the EC50 was over 200 µM and the IC50 amounted to 24 µM.

On to `CN(C(=O)Cc1ccccc1)n1cn[n+](CC(=O)OC(C)(C)C)c1`, for which the EC50 is over 200 µM and the half-maximal inhibitory concentration (IC50) is over 200 µM.

For the compound `NC1=NCCS1`, the EC50 was over 70.8 µM; the IC50 was > 70.8 µM and 32.4 µM.

Turning to `CC(=O)OC1C[C@@H](C)C2(C[C@H](O)c3ccoc3)C(=O)OC[C@]13C2CCC(O)C31CO1` (some centres undefined), the EC50 is over 200 µM and the IC50 is over 200 µM.

Regarding `CCNC(=S)N/N=C(\C)c1ccccn1`, the EC50 is over 0.2 µM and the IC50 is 0.0158 µM.

`CCOC(=O)c1[nH]n(-c2ccccc2)c(=O)c1/C=N/C(=S)Nc1c(CC)cccc1CC`: the EC50 was over 100 µM and the IC50 came to 24.5 µM.

Turning to `COc1cc([C@H]2CC(=O)C[C@H](c3cc(OC)c(OC)c(OC)c3)C23C(=O)c2ccccc2C3=O)cc(OC)c1OC`, the EC50 was over 200 µM and the half-inhibitory concentration (IC50) was over 200 µM.

As for `CCOC(=O)C(NC(=O)NCc1ccc(F)cc1)C(F)(F)F` (centres undefined), the EC50 was over 200 µM and the IC50 amounted to 81.3 µM.

Take `N#C/C(=C\c1cc(Br)cc(Br)c1O)c1ccc([N+](=O)[O-])cc1`: the EC50 is over 100 µM and the IC50 came to 13.5 µM.

`CC(CN(C)C)C(=O)c1ccccc1` (centres undefined): the EC50 was over 912 µM and the IC50 was 55 µM.

As for `CCC[CH2][Sn]([CH2]CCC)([O]C(=O)c1c(F)cccc1F)[O]C(=O)c1c(F)cccc1F`, the EC50 is over 9.55 µM and the IC50 worked out at 1.91 µM.

As for `CCOP1(=O)CC(C)=C(Cl)C(O)C1` (centres undefined), the EC50 is over 200 µM and the IC50 was over 200 µM.

With `CC(=O)NNc1nc(C)c(C(/C=C/c2ccccc2O)=N/N=C(N)N)s1`, the EC50 was over 89.1 µM and the 50% inhibitory concentration (IC50) is over 89.1 µM.

Take `COc1cc(C=C2C(=O)NC(=O)NC2=O)ccc1OCc1ccccc1`: the EC50 is over 93.3 µM and the IC50 came to 89.1 µM.

Turning to `CCC(C)C(NC(=O)c1ccccc1SC(=O)CCCC[n+]1ccccc1)C(N)=O` (centres undefined), the EC50 was over 35.5 µM and the IC50 is 4.07 µM.

On to `C/C(C=O)=C\c1ccc(N(C)C)cc1`, for which the EC50 is over 38 µM and the half-maximal inhibitory concentration (IC50) was over 38 µM.

For the compound `CC(C)OP(=O)(OC(C)C)c1ccc2c(c1)OCCOCCOCCOCCO2`, the EC50 is over 200 µM and the 50% inhibitory concentration (IC50) is over 200 µM.

In the case of `CCOC(=O)C1Cc2c(n(C3CCCCC3)c(=O)n(C)c2=O)OC1c1ccccc1` (centres undefined), the EC50 was over 63.1 µM and the IC50 came to 29.5 µM.

In turn, `CCOC(=O)c1cn(CC)c2cc3c(cc2c1=O)CCS3(=O)=O` returned an EC50 of over 200 µM and an IC50 of over 200 µM.

Take `CCn1c(O)c(C=Nc2ccccc2)s/c1=N/Nc1nc(-c2ccccc2)cs1`: the EC50 is over 200 µM and the half-inhibitory concentration (IC50) worked out at 24.5 µM.

Take `CCc1cc(Cc2cc(CC)c(NC(=O)C3=CC(=O)CC(c4ccc(OC)cc4)O3)c(CC)c2Cl)c(Cl)c(CC)c1NC(=O)C1=CC(=O)CC(c2ccc(OC)cc2)O1` (centres undefined): the outcome was inactive.

As to `CC1CC2Oc3ccc(Cl)cc3C(=O)N2O1` (centres undefined), the EC50 was over 200 µM and the IC50 is over 200 µM.

Regarding `CCCCCOP(=O)(OCCCCC)C(NC(C)=O)(C(=O)OCC)C(F)(F)F` (centres undefined), the EC50 is over 200 µM and the IC50 was determined as 110 µM.

Turning to `CC(CC(N)C(=O)O)C(=O)O` (centres undefined), the EC50 is over 200 µM and the IC50 was over 200 µM.

On to `O=C1CCCC/C1=C(\Br)I`, for which the outcome was inactive.

As to `Brc1ccccc1/C=C\C1(c2ccccc2)OCCO1`, the EC50 is over 200 µM and the IC50 was 4.37 µM.

Regarding `O=C1CCC(c2ccccc2)=NN1c1nc2ccccc2s1`, the outcome was inactive.

For the compound `C=CCCCN1C(=O)CCC1=O`, the outcome was inactive.

For `CN(C)CC1CCc2ccccc2C1=O` (centres undefined), the result was inactive.

For the compound `CS(=O)(=O)NNS(=O)(=O)c1ccc2ccccc2c1`, the EC50 was over 224 µM and the IC50 is over 224 µM.

Take `CCOC(=O)c1ccc(NC(=O)Nc2cc(C)ccn2)cc1`: the EC50 is over 200 µM and the IC50 was over 200 µM.

`O=C(O)C1CC2(CCC1c1ccccc1)SCCS2` (centres undefined): the EC50 is over 447 µM and the 50% inhibitory concentration (IC50) was over 447 µM.

With `O=C(c1ccco1)N1CCCN(C(=O)c2ccco2)C1=S`, the EC50 was over 200 µM and the IC50 stood at 28.2 µM.

Consider `COC(=O)c1cc(C(=CCCCC=O)c2cc(Cl)c(OC)c(C(=O)OC)c2)cc(Cl)c1OC`, for which the EC50 is over 200 µM and the IC50 is 11.5 µM.

As for `COC(=O)C1C(O)C(C)C(O)C(C)/C=C\C=C(C)C(=O)Nc2c(C)c(OC(C)=O)c3c(c2O)C(=O)C(C)=C2OCOC(=C23)C(C)=CC(C)(O)C(O)C(C)C1O` (centres undefined), the EC50 was over 324 µM; the IC50 is 117 µM and 162 µM.

As to `CCOP(=O)(OCC)c1cc2cc(O)ccc2oc1=O`, the EC50 was over 200 µM and the IC50 is over 200 µM.

Take `CC(C)(C)[Si](OC[C@H]1OC(=O)[C@@H]2CN(Cc3ccccc3)C[C@H]12)(c1ccccc1)c1ccccc1`: the EC50 is over 7.76 µM and the IC50 is over 7.76 µM.

In the case of `C=CC12CN3C4C3C1C1(CCC42)C(=O)N(COCC[Si](C)(C)C)c2ccccc21` (centres undefined), the EC50 is over 63.1 µM and the half-maximal inhibitory concentration (IC50) is 25.7 µM.

`COc1ccc(-n2cnc3c(NC(Cc4ccccc4)C(=O)O)ncnc32)cc1` (centres undefined): the EC50 was over 200 µM and the IC50 is 2 µM.

With `Cc1cc(C)nc(NC(=S)Nc2ccccc2Cl)c1`, the EC50 is over 200 µM and the half-inhibitory concentration (IC50) was over 200 µM.

As for `Cc1ccc(N2C3=C(CC4=C2CC(C)(C)CC4=O)C(=O)CC(C)(C)C3)cc1`, the EC50 is over 100 µM and the IC50 was over 100 µM.

On to `CC1CC/C(=C\c2ccc(F)cc2)C2=C1C(c1ccc(F)cc1)N1C(=O)CSC1=N2` (centres undefined), for which the EC50 is over 200 µM and the IC50 is 75.9 µM.

As for `O=C1NCc2ccccc2S(=O)(=O)n2cccc21`, the EC50 was over 200 µM and the IC50 came out at 120 µM.

Turning to `Cn1c(=O)c(-c2ccccc2)c(O)c2ccccc21`, the EC50 is over 200 µM and the 50% inhibitory concentration (IC50) was over 200 µM.

As for `CN(O)C(=O)Cc1ccc(OCc2cccc(Cl)c2)cc1`, the EC50 is over 200 µM and the IC50 is over 200 µM.

`Cc1ccc(S(=O)(=O)N/N=C2/C3CCC(C3)C2c2ccccc2)cc1` (centres undefined): the EC50 was over 200 µM and the IC50 is over 200 µM.

`CC12CCCC(O)C1CCC1=CC3(CCC12)SCCS3` (centres undefined): the EC50 is over 12 µM and the IC50 is over 12 µM.

For the compound `Cc1cccc(NC(=S)Nc2cccc(C)n2)n1`, the EC50 is over 200 µM and the IC50 was over 200 µM.

Consider `CCC12C=CCN3CCC4(c5cc(C6(C(=O)OC)CCCCCc7c6[nH]c6ccccc76)c(OC)cc5N(C)C4C(O)(C(=O)OC)C1OC(C)=O)C32` (centres undefined), for which the EC50 was over 25.1 µM and the IC50 worked out at 4.37 µM.

As to `Cc1cc(C)c(S(=O)(=O)N(CCCCCN)OCCCN)c(C)c1`, the EC50 is over 200 µM and the IC50 is 30.2 µM.

On to `Nc1c(S(=O)(=O)O)cc(S(=O)(=O)O)c2ccc(N=Nc3ccc(CCc4ccc(N=Nc5ccc6c(S(=O)(=O)O)cc(S(=O)(=O)O)c(N)c6c5O)cc4S(=O)(=O)O)c(S(=O)(=O)O)c3)c(O)c12`, for which the EC50 was 8.13 µM and the 50% inhibitory concentration (IC50) came to 138 µM.

On to `C/C(=N\O)C(CN1CCCCC1)C(c1ccccc1)c1c(O)c2ccccc2oc1=O` (centres undefined), for which the EC50 was over 29.5 µM and the IC50 is over 29.5 µM.

For `O=P(c1ccccc1)(c1ccccc1)c1ccc2c(c1)OCCOCCOCCOCCO2`, the EC50 is over 200 µM and the IC50 was over 200 µM.

For `COc1cccc2c1C(=O)c1ccc3cc(CO)cc(O)c3c1C2=O`, the EC50 was over 200 µM and the IC50 worked out at 1.12 µM.

Regarding `Nc1c2ccccc2nc2nccnc12`, the EC50 was over 26.3 µM and the IC50 is over 26.3 µM.

Regarding `CC1OC(=O)N2CCC=CC12` (centres undefined), the result was inactive.

On to `COc1ccc(Cn2nc(OCc3ccccc3)c3cc([N+](=O)[O-])ccc32)cc1`, for which the EC50 was over 200 µM and the IC50 stood at 25.1 µM.

Turning to `COc1ccc(/C=C/C(=O)C(C)(C)C)cc1`, the result was inactive.

Regarding `COc1ccc2c(c1)N(C(C)=O)CN1C(=O)CCC21` (centres undefined), the result was inactive.

Consider `C(=Nc1cnc2ccccc2c1)c1ccc2ccccc2n1`, for which the EC50 was over 35.5 µM and the half-maximal inhibitory concentration (IC50) worked out at 19.1 µM.

On to `COc1ccc(/C=c2/sc3n(c2=O)NC(c2ccc(Cl)cc2)NN=3)cc1` (centres undefined), for which the outcome was inactive.

Consider `CCOC(=O)/C=C1\C(=O)N(Cc2ccccc2)c2ccccc21`, for which the EC50 is over 200 µM and the IC50 stood at 1 µM.

As for `Cc1ccc(S(=O)(=O)NC(N)=NCCCC(NC(=O)OCc2ccccc2)C(=O)N[C@H]2CC[C@H]3[C@@H]4CC=C5C[C@@H](O)CC[C@]5(C)[C@H]4CC[C@]23C)cc1` (some centres undefined), the EC50 is over 200 µM and the IC50 was 34.7 µM.

Consider `O=C(/C=C/c1ccc(Cl)c(Cl)c1)c1ccccc1Cl`, for which the EC50 was over 2.4 µM and the IC50 is over 2.4 µM.

Turning to `CN1CCN(C2Sc3ccccc3C(=O)N3CCCC23)CC1` (centres undefined), the EC50 was over 126 µM and the IC50 was over 126 µM.

Consider `Sc1cccc2c(S)cccc12`, for which the EC50 was over 200 µM and the IC50 was over 200 µM.

On to `CC1(C)C[C@H](O)[C@H](O)[C@]23C(=O)O[C@H](O)[C@H]2C(C=O)=CC[C@@H]13`, for which the EC50 was over 200 µM and the IC50 is over 200 µM.

On to `O=P(CP(=O)(c1ccccc1)c1ccccc1)(c1ccccc1)c1ccccc1.[CH3][Sn]([CH3])([Cl])[Cl]`, for which the outcome was inactive.

As to `CN(C)c1ccc(C(=C2C=CC(=[N+](C)C)C=C2)c2c(O)c(S(=O)(=O)O)cc3cc(S(=O)(=O)O)ccc23)cc1`, the result was inactive.

Take `CCN(CC)CC1CCCCN1CC(=O)N1c2ccccc2NC(=O)c2ccccc21` (centres undefined): the EC50 is over 200 µM and the concentration for half-maximal inhibition (IC50) was over 200 µM.
